Data as given in patent US8163793B2, “Proline derivatives” (Hoffman-La Roche Inc., priority 2009, dated 2012).

How the values were obtained:
Cathepsin S = Cathepsin S (UniProt P25774); assay: Cathepsin enzyme inhibition assay (fluorogenic peptide substrate Z-Val-Val-Arg-AMC), Cathepsin S; assay type: biochemical, human and mouse; settings: enzyme 1 nM, substrate 20 μM, pH 6.5; read-out: CatS IC50
Summary of the method: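 Compounds were combined with 1 nM human or mouse enzyme, and substrate then started the reaction. The buffer was potassium phosphate (100 mM, pH 6.5) containing EDTA-Na 5 mM, Triton X-100 0.001% and […] 5 mM.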

Cat L = Cat L (UniProt P07711); assay: Cathepsin enzyme inhibition assay (fluorogenic peptide substrate Z-Val-Val-Arg-AMC), Cathepsin L; assay type: biochemical, human and mouse; settings: enzyme 1 nM, substrate 20 μM, pH 6.5; read-out: CatL IC50
Summary of the method: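 Fluorogenic cleavage of Z-Val-Val-Arg-AMC (20 μM) by 1 nM Cat L was monitored at ex 360/em 465 nm for 20 min, the linear phase. The buffer was 100 mM potassium phosphate pH 6.5 with 5 mM EDTA and DTT. IC50 values were derived by standard methods, in μM.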

CC(Oc1ccc(S(=O)(=O)[C@@H]2C[C@@H](C(=O)NC3(C#N)CC3)N(C=O)C2)c(Cl)c1)C(F)(F)F (stereo partly drawn) [Example 150, (2S,4R)-4-[2-Chloro-4-(2,2,2-trifluoro-1-methyl-ethoxy)-benzenesulfonyl]-1-formyl-pyrrolidine-2-carboxylic acid (1-cyano-cyclopropyl)-amide]
IC50 (Cathepsin S): 1.7 nM
IC50 (Cat L): 27900 nM

CC(C)(C)OC(=O)N1C[C@H](S(=O)(=O)c2ccc(N3CCC(F)(F)CC3)cc2Cl)C[C@H]1C(=O)NC1(C#N)CC1 [Example 152, (2S,4R)-4-[2-Chloro-4-(4,4-difluoro-piperidin-1-yl)-benzenesulfonyl]-2-(1-cyano-cyclopropylcarbamoyl)-pyrrolidine-1-carboxylic acid tert.-butyl ester]
IC50 (Cathepsin S): 2.2 nM
IC50 (Cat L): 30800 nM

CC(C)(C)OC(=O)N1C[C@H](S(=O)(=O)c2ccc(N3CCC(C(F)(F)F)CC3)cc2Cl)C[C@H]1C(=O)NC1(C#N)CC1 [Example 153, (2S,4R)-4-[2-Chloro-4-(4-trifluoromethyl-piperidin-1-yl)-benzenesulfonyl]-2-(1-cyano-cyclopropylcarbamoyl)-pyrrolidine-1-carboxylic acid tert.-butyl ester]
IC50 (Cathepsin S): 2.5 nM
IC50 (Cat L): 44000 nM

N#CC1(NC(=O)[C@@H]2C[C@@H](S(=O)(=O)c3ccc(N4CCC(C(F)(F)F)CC4)cc3Cl)CN2)CC1 [Example 154, (2S,4R)-4-[2-Chloro-4-(4-trifluoromethyl-piperidin-1-yl)-benzenesulfonyl]-pyrrolidine-2-carboxylic acid (1-cyano-cyclopropyl)-amide]
IC50 (Cathepsin S): 1.8 nM
IC50 (Cat L): 6630 nM

N#CC1(NC(=O)[C@@H]2C[C@@H](S(=O)(=O)c3ccc(N4CCC(F)(F)CC4)cc3Cl)CN2)CC1 [Example 155, (2S,4R)-4-[2-Chloro-4-(4,4-difluoro-piperidin-1-yl)-benzenesulfonyl]-pyrrolidine-2-carboxylic Acid (1-cyano-cyclopropyl)-amide]
IC50 (Cathepsin S): 2.5 nM
IC50 (Cat L): 8320 nM

N#CC1(NC(=O)[C@@H]2C[C@@H](S(=O)(=O)c3ccc(N4CCC(C(F)(F)F)CC4)cc3Cl)CN2C(=O)C2(C(F)(F)F)CC2)CC1 [Example 156, (2S,4R)-4-[2-Chloro-4-(4-trifluoromethyl-piperidin-1-yl)-benzenesulfonyl]-1-(1-trifluoromethyl-cyclopropanecarbonyl)-pyrrolidine-2-carboxylic acid (1-cyano-cyclopropyl)-amide]
IC50 (Cathepsin S): 0.4 nM
IC50 (Cat L): 4400 nM

N#CC1(NC(=O)[C@@H]2C[C@@H](S(=O)(=O)c3ccc(N4CCC(F)(F)CC4)cc3Cl)CN2C(=O)C2(C(F)(F)F)CC2)CC1 [Example 157, (2S,4R)-4-[2-Chloro-4-(4,4-difluoro-piperidin-1-yl)-benzenesulfonyl]-1-(1-trifluoromethyl-cyclopropanecarbonyl)-pyrrolidine-2-carboxylic acid (1-cyano-cyclopropyl)-amide]
IC50 (Cathepsin S): 0.4 nM
IC50 (Cat L): 4410 nM

CC(C)(C)OC(=O)N1C[C@@H](S(=O)(=O)c2ccccc2C(F)(F)F)C[C@H]1C(=O)NC1(C#N)CC1 [Example 158, (2S,4S)-2-(1-Cyano-cyclopropylcarbamoyl)-4-(2-trifluoromethyl-benzenesulfonyl)-pyrrolidine-1-carboxylic acid tert.-butyl ester]
IC50 (Cathepsin S): 120 nM
IC50 (Cat L): ≥ 25000 nM

N#CC1(NC(=O)[C@@H]2C[C@H](S(=O)(=O)c3ccccc3C(F)(F)F)CN2)CC1 [Example 159, (2S,4S)-4-(2-Trifluoromethyl-benzenesulfonyl)-pyrrolidine-2-carboxylic acid (1-cyano-cyclopropyl)-amide]
IC50 (Cathepsin S): 2610 nM
IC50 (Cat L): ≥ 25000 nM

COc1ccc(N2C[C@H](S(=O)(=O)c3ccccc3C(F)(F)F)C[C@H]2C(=O)NC2(C#N)CC2)cc1 [Example 160, (2S,4R)-1-(4-Methoxy-phenyl)-4-(2-trifluoromethyl-benzenesulfonyl)-pyrrolidine-2-carboxylic Acid (1-cyano-cyclopropyl)-amide]
IC50 (Cathepsin S): 6 nM
IC50 (Cat L): ≥ 25000 nM

N#CC1(NC(=O)[C@@H]2C[C@@H](S(=O)(=O)c3ccc(N4CCOCC4)cc3Cl)CN2C(=O)C2(C(F)(F)F)CC2)CC1 [Example 161, (2S,4R)-4-(2-Chloro-4-morpholin-4-yl-benzenesulfonyl)-1-(1-trifluoromethyl-cyclopropanecarbonyl)-pyrrolidine-2-carboxylic acid (1-cyano-cyclopropyl)-amide]
IC50 (Cathepsin S): 0.4 nM
IC50 (Cat L): 6070 nM

N#CC1(NC(=O)[C@H]2C[C@@H](S(=O)(=O)c3ccc(N4CCOCC4)cc3Cl)CN2C(=O)C2(C(F)(F)F)CC2)CC1 [Example 162, (2R,4R)-4-(2-Chloro-4-morpholin-4-yl-benzenesulfonyl)-1-(1-trifluoromethyl-cyclopropanecarbonyl)-pyrrolidine-2-carboxylic acid (1-cyano-cyclopropyl)-amide]
IC50 (Cathepsin S): 23.5 nM
IC50 (Cat L): ≥ 25000 nM

N#CC1(NC(=O)[C@@H]2C[C@@H](S(=O)(=O)c3ccc(N4CCNCC4)cc3Cl)CN2C(=O)C2(C(F)(F)F)CC2)CC1 [Example 163, (2S,4R)-4-(2-Chloro-4-piperazin-1-yl-benzenesulfonyl)-1-(1-trifluoromethyl-cyclopropanecarbonyl)-pyrrolidine-2-carboxylic acid (1-cyano-cyclopropyl)-amide formiate]
IC50 (Cathepsin S): 0.3 nM
IC50 (Cat L): 2620 nM

N#CCNC(=O)[C@@H]1C[C@@H](S(=O)(=O)c2ccccc2C(F)(F)F)CN1c1ccccc1[N+](=O)[O-] [Example 164, (2S,4R)-1-(2-Nitro-phenyl)-4-(2-trifluoromethyl-benzenesulfonyl)-pyrrolidine-2-carboxylic acid cyanomethyl-amide]
IC50 (Cathepsin S): 0.8 nM
IC50 (Cat L): ≥ 25000 nM

N#CC1(NC(=O)[C@H]2C[C@@H](S(=O)(=O)c3ccc(-n4cccn4)cc3Cl)CN2C(=O)C2(C(F)(F)F)CC2)CC1 [Example 165, (2R,4R)-4-(2-Chloro-4-pyrazol-1-yl-benzenesulfonyl)-1-(1-trifluoromethyl-cyclopropanecarbonyl)-pyrrolidine-2-carboxylic acid (1-cyano-cyclopropyl)-amide]
IC50 (Cathepsin S): 110 nM
IC50 (Cat L): ≥ 25000 nM

N#CC1(NC(=O)[C@@H]2C[C@@H](S(=O)(=O)c3ccccc3C(F)(F)F)CN2c2ccccc2[N+](=O)[O-])CC1 [Example 166, (2S,4R)-1-(2-Nitro-phenyl)-4-(2-trifluoromethyl-benzenesulfonyl)-pyrrolidine-2-carboxylic Acid (1-cyano-cyclopropyl)-amide]
IC50 (Cathepsin S): 0.6 nM
IC50 (Cat L): ≥ 25000 nM

N#CC1(NC(=O)[C@@H]2C[C@@H](S(=O)(=O)c3ccc(Cl)cc3Cl)CN2c2ccccc2[N+](=O)[O-])CC1 [Example 167, (2S,4R)-4-(2,4-Dichloro-benzenesulfonyl)-1-(2-nitro-phenyl)-pyrrolidine-2-carboxylic acid (1-cyano-cyclopropyl)-amide]
IC50 (Cathepsin S): 1.4 nM
IC50 (Cat L): 17400 nM

N#CC1(NC(=O)[C@@H]2C[C@@H](S(=O)(=O)c3ccc(Cl)cc3Cl)CN2C(=O)C2(C(F)(F)F)CC2)CC1 [Example 168, (2S,4R)-4-(2,4-Dichloro-benzenesulfonyl)-1-(1-trifluoromethyl-cyclopropanecarbonyl)-pyrrolidine-2-carboxylic acid (1-cyano-cyclopropyl)-amide]
IC50 (Cathepsin S): 0.6 nM
IC50 (Cat L): 8800 nM

N#CC1(NC(=O)[C@@H]2C[C@@H](S(=O)(=O)c3ccc(Cl)cc3Cl)CN2C(=O)C2(C(F)(F)F)CCC2)CC1 [Example 169, (2S,4R)-4-(2,4-Dichloro-benzenesulfonyl)-1-(1-trifluoromethyl-cyclobutanecarbonyl)-pyrrolidine-2-carboxylic acid (1-cyano-cyclopropyl)-amide]
IC50 (Cathepsin S): 0.4 nM
IC50 (Cat L): 7580 nM

N#CC1(NC(=O)[C@@H]2C[C@@H](S(=O)(=O)c3ccc(Cl)cc3Cl)CN2C(=O)C2CC2(F)F)CC1 (stereo partly drawn) [Example 170, (2S,4R)-4-(2,4-Dichloro-benzenesulfonyl)-1-(2,2-difluoro-cyclopropanecarbonyl)-pyrrolidine-2-carboxylic acid (1-cyano-cyclopropyl)-amide]
IC50 (Cathepsin S): 1 nM
IC50 (Cat L): 18400 nM

CC(C)(C)OC(=O)N1C[C@H](S(=O)(=O)c2ccc(OCC(F)(F)F)cc2Cl)C[C@H]1C(=O)NC1(C#N)CC1 [Example 171, (2S,4R)-4-[2-Chloro-4-(2,2,2-trifluoro-ethoxy)-benzenesulfonyl]-2-(1-cyano-cyclopropylcarbamoyl)-pyrrolidine-1-carboxylic acid tert.-butyl ester]
IC50 (Cathepsin S): 7 nM
IC50 (Cat L): ≥ 25000 nM

N#CC1(NC(=O)[C@@H]2C[C@@H](S(=O)(=O)c3ccc(OCC(F)(F)F)cc3Cl)CN2C(=O)C2(C(F)(F)F)CC2)CC1 [Example 172, (2S,4R)-4-[2-Chloro-4-(2,2,2-trifluoro-ethoxy)-benzenesulfonyl]-1-(1-trifluoromethyl-cyclopropanecarbonyl)-pyrrolidine-2-carboxylic acid (1-cyano-cyclopropyl)-amide]
IC50 (Cathepsin S): 0.4 nM
IC50 (Cat L): 8930 nM

N#CC1(NC(=O)[C@H]2CC(S(=O)(=O)c3ccc(OCC(F)(F)F)cc3Cl)CN2)CC1 (stereo partly drawn) [Example 173, (R)-4-[2-Chloro-4-(2,2,2-trifluoro-ethoxy)-benzenesulfonyl]-pyrrolidine-2-carboxylic acid (1-cyano-cyclopropyl)-amide]
IC50 (Cathepsin S): 5.9 nM
IC50 (Cat L): 27300 nM

CC(C)(C)OC(=O)N1C[C@H](S(=O)(=O)c2ccc(OC3COC3)cc2Cl)C[C@H]1C(=O)NC1(C#N)CC1 [Example 174, (2S,4R)-4-[2-Chloro-4-(oxetan-3-yloxy)-benzenesulfonyl]-2-(1-cyano-cyclopropylcarbamoyl)-pyrrolidine-1-carboxylic acid tert.-butyl ester]
IC50 (Cathepsin S): 3.3 nM
IC50 (Cat L): 41500 nM
